Assay results: paper PMC11571109, “Covalent Inhibitors of S100A4 Block the Formation of a Pro-Metastasis Non-Muscle Myosin 2A Complex” (Journal of Medicinal Chemistry, 2024)
Values joined by “and” are separate entries in the source; they are usually repeats but may differ in a detail not shown here. Identical values can stand only once. Like-named read-outs stand apart in the source and are kept apart here.

Key:
[1] = target: T1, S100A4-NMII (Homo sapiens, UniProt P26447); experiment: HTRF (TR-FRET) peptide displacement S100A4-NMII (MPN peptide); format: binding; design: made in house; host or cells: E. coli Rosetta (DE3); peptide from LifeTein; settings: supplementary CSV
T1 sequence (P26447 whole entry): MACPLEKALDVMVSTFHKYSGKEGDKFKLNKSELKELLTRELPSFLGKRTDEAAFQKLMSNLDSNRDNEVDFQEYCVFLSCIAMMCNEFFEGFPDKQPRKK
Protocol: (§1) Peptide displacement assay development
(§2) addition of an inhibitor.
(§3) Assay was done in 384-well
(§4) After 2 hours of incubation at
(§5) concentration range to avoid the saturation of the signal.

[2] = target: T2, S100A11-AnII (Homo sapiens, UniProt P31949); experiment: HTRF (TR-FRET) peptide displacement S100A11-AnII; format: binding; settings: supplementary CSV
T2 construct: made in house; host or cells: E. coli Rosetta (DE3); peptide from LifeTein
T2 sequence (P31949 1-105): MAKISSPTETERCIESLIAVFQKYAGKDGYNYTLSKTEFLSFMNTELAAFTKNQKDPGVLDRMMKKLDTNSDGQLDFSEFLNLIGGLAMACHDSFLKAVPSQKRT
Protocol: Table S4: Compound IDs and SMILES … S30 […]
as §1, §2, §3, §4, §5

[3] = target: S100A4 (Homo sapiens, UniProt P26447); experiment: Protein labeling detection by mass spectrometry, S100A4; settings: 10 μM S100A4, 100 μM inhibitor, 1 h
Sequence of S100A4 (P26447 whole entry): as the sequence (P26447 whole entry) above

[4] = Cytotoxicity assay (LDH-Glo), HeLa; format: cell-based; settings: human, HeLa cells, supplementary CSV, read-out: HeLa Cell toxicity IC50
Protocol: (§6) To further characterize the potency of the phenylproline derivatives on cancer cells, their effect on proliferation has been measured on HeLa and A549 cell lines, which are known to express S100A4.[44],[45] A cell proliferation assay was performed by cultivating cells for 48 h in complete media with various concentrations of inhibitors, up to 30 μM. At the end of the treatment, luminescence was measured after the addition of the CellTiter-Glo reagent (Figure 7A).
(§7) The day before, cells were seeded in a white, cell-culture treated 384-well plates in complete high-glucose DMEM to reach a confluency of 25% on the day of the experiment. The next day, the medium was replaced by complete, high-glucose, phenol-red-free medium, and cells were incubated for 48 h in the presence of an inhibitor or DMSO as a control. Aliquots of the supernatant were harvested, diluted 100 times in 200 mM Tris-HCl, pH 7.3, 10% glycerol, and 1% BSA buffer, and used for cyctotoxicity measurement by using the LDH-Glo cytotoxicity assay kit (Promega). In parallel, the CellTiter-Glo (Promega) reagent was added to the cells to measure cell proliferation. Both experiments were done according to the manufacturer’s recommendations, and the luminescence was quantified using the FSX plate reader (Pherastar).

[5] = test system: HeLa; experiment: Cell proliferation assay (CellTiter-Glo), HeLa; format: cell-based; settings: Homo sapiens, 48 h, supplementary CSV
Protocol: as §6, §7

[6] = test system: A549; experiment: Cell proliferation assay (CellTiter-Glo), A549; format: cell-based; settings: Homo sapiens, 48 h, supplementary CSV
Protocol: as §6, §7

[7] = target: T1, S100A4-NMII; experiment: cell-based
Text: First, we performed IC50 measurements of protein–protein interaction in the presence of inhibitors using NanoBret technology. Briefly, S100A4-HaloTag and NMII-NanoLuc were expressed in 293HEK cells to allow signal detection from donor (NanoLuc) and acceptor (HaLoTag) proximity upon S100A4-NMII interaction.
Assay development was done according to the NanoBRet-NanoGlo detection system manufacturer’s recommendations (Promega) by testing each combination of N- and C-termini of HaloTag and NanoLuc fusion constructs. 293HEK cells were seeded on 6-well plates in complete DMEM media and transfected 6 h later with S100A4-NanoLuc (1.8 μg) and NMII-HaloTag (0.2 μg) constructs using the JetPrime transfection reagent (Polyplus Transfection, Strasbourg, France). After an overnight incubation, cells were resuspended in phenol-red-free, 4% serum media in the presence of the HaloTag NanoBret 618 ligand or DMSO for control. […] NanoBret NanoGlo substrates were added to cells prior to reading the plate with the Pherastar FSX plate reader. The raw Nanobret ratio was calculated by dividing the acceptor emission value (618 nm) by the donor emission value (460 nm) for each sample. The mean NanoBret data were calculated by subtracting the background ratio (no acceptor control) from the sample ratio.

[8] = Log D; format: physicochemical
Text: (§8) Selected compounds were screened for aqueous solubility in PBS (pH 7.4), metabolic stability in mouse liver microsomes (MLM) as a measure of clearance, Log D, and permeability. ADME studies reported in this work were independently performed by WuXi AppTec (Shanghai, China). Raw data are provided upon request.

[9] = test system: P-gp (MDR1); experiment: Cell permeability MDR1-MDCK II; format: in vitro ADME; settings: dog
Text: as §8

[10] = Aqueous solubility in PBS (pH 7.4); format: physicochemical; settings: aqueous buffer; PBS pH 7.4; read-out: aq. solubility
Text: as §8

[11] = GSH reactivity assay (LCMS); format: physicochemical; settings: 1 mM glutathione (GSH) in HEPES buffer, pH 7.5; read-out: GSH t1/2 (converted)
Protocol: GSH is the most abundant low molecular weight thiol compound in the cell. It protects cells from oxidative damage and the toxicity of xenobiotic electrophiles and maintains redox homeostasis.[43] We speculated that a robust and specific reaction of inhibitors would not be drastically affected by competitive cysteines in the reaction.
50 μM of each compound was incubated at room temperature with 1 mM GSH in 50 mM HEPES, 20 mM NaCl, pH 7.5, and 1.3% DMSO. At each time point, an aliquot was taken and analyzed by LCMS. The percentage of the compound remaining was determined by comparing the area of the peaks of the compound and the GSH adduct. The natural logarithm of the results was fitted to a linear regression, and t1/2 was calculated as t1/2 = ln(2)/–slope.

[12] = Cytotoxicity assay (LDH-Glo), A549; format: cell-based; settings: human, A549 cells, supplementary CSV, read-out: A549 Cell toxicity IC50
Protocol: as §6, §7

[13] = Metabolic stability in mouse liver microsomes (MLM); format: in vitro ADME
Text: as §8

[14] = read-out: S100A4 IC50 HTRF assay

| IC50 [1, 14] | IC50 [2] | Compound | other results |
| --- | --- | --- | --- |
| 1.73 µM | 8.15 µM | C#CC(=O)N1CCN(CCc2cnn(-c3nccc4c(=O)[nH]cnc34)c2)CC1 [4a] |  |
| 0.43 µM | 3.67 µM | CC(C)c1c(-c2ccc(OCCNC(=O)/C=C/C(=O)c3ccccc3)cc2)[nH]c2c(C#N)cnn2c1=O [2a] | S100A4 covalent modification pattern (in words) [3]: multiple adduct additions |
| 9.32 µM | > 30 µM | C=CC(=O)Nc1cccc(CN(CCc2cnn(-c3nccc4c(=O)[nH]cnc34)c2)C2CCCC2)c1 [3b] |  |
| 9.24 µM | > 30 µM | O=C(CCl)Nc1ccc2c(c1)CN(CCc1cnn(-c3nccc4c(=O)[nH]cnc34)c1)CC2 [2d] |  |
| 4.75 µM | > 30 µM | COc1cccc(N2CC(NC(=O)[C@H]3C[C@H](c4ccccc4)CN3C(=O)CCl)CC2=O)c1 (some centres unmarked) [5f] |  |
| 1.24 µM | > 30 µM | N#CCc1ccc(NC(=O)[C@H]2C[C@H](c3ccccc3)CN2C(=O)CCl)cc1 [5g] |  |
| 0.77 µM | 36.8 µM | CC(C)C[C@@H](NC(=O)[C@H]1C[C@H](c2ccccc2)CN1C(=O)CCl)c1nc2ccccc2[nH]1 [5c] | IC50 at 48 h [4]: 29.8 µM; IC50 [5]: 4.5 µM; IC50 ([1]; S100A4 + 1mM GSH IC50 HTRF assay, 1 mM GSH): 1.57 µM; S100A4 covalent modification pattern (in words) [3]: single shifts; IC50 [6]: 11.9 µM; IC50 [7]: 11.1 µM; logD [8]: 4.64; Papp ([9]; MDCK-MDR1, A to B, read-out: MDR1-MDCK II, AB Papp): 12.6 ×10⁻⁶ cm/s; Papp ([9]; MDCK-MDR1, B to A, read-out: MDR1-MDCK II, BA Papp): 38.8 ×10⁻⁶ cm/s; solubility [10]: 1.69 µg/mL and 3.73 µM; half-life at 50 μM [11]: 6.8 h; IC50 at 48 h [12]: 37.7 µM; microsomal stability MLM (in words) [13]: moderate MLM stability; MLM, Cli ([13]; mouse liver microsomes): 209 μL/min/mg protein; half-life ([13]; mouse liver microsomes, read-out: MLM, T1/2): 7 min |
| 1.79 µM | 5.6 µM | CC(C)c1c(-c2cnn(CCNC(=O)/C=C/C(=O)c3ccccc3)c2)[nH]c2c(C#N)cnn2c1=O [2c] |  |
